{
  "source": "patent US20100209486A1",
  "about": "“Method of enhancing CoenzymeQ10 levels in mammals” (priority 2009, published 2010)",
  "key": {"[1]": {"system": "isolated guinea pig hearts", "test": "Recovery of post-ischemic cardiac function (HR, CF, AF, LVDP) in isolated working guinea pig hearts", "format": "in vivo", "details": "5 mg/kg/day oral for 4 weeks; for aortic flow (AF), After 60 min of RE / coronary flow (CF), After 60 min of RE / heart rate (HR), After 60 min of RE / left ventricular developed pressure (LVDP), After 60 min of RE / aortic flow (AF), After 120 min of RE / heart rate (HR), After 120 min of RE / coronary flow (CF), After 120 min of RE / left ventricular developed pressure (LVDP), After 120 min of RE: 30 min ischemia; for aortic flow (AF), After 60 min of RE / coronary flow (CF), After 60 min of RE / heart rate (HR), After 60 min of RE / left ventricular developed pressure (LVDP), After 60 min of RE: 60 min reperfusion; for aortic flow (AF), After 120 min of RE / heart rate (HR), After 120 min of RE / coronary flow (CF), After 120 min of RE / left ventricular developed pressure (LVDP), After 120 min of RE: 120 min reperfusion; for aortic flow (AF), Before ISA / coronary flow (CF), Before ISA / heart rate (HR), Before ISA / left ventricular developed pressure (LVDP), Before ISA: isolated heart before ischemia", "experimental": "Experimental studies were designed to determine if CoQ9 could protect guinea pig hearts from ischemia reperfusion injury. Myocardial ischemia reperfusion injury model is the most widely accepted experimental method for assessment of parameters related to cardio-protection. Guinea pigs were randomly divided into three groups: Group II and Group III were supplemented with 5 mg/kg bodyweight of CoQ9 and CoQ10, respectively, for 4 weeks while Group I served as control (C). After 4 weeks, the guinea pigs were sacrificed and the isolated hearts were perfused via working mode. The isolated hearts were subjected to ischemia for 30 min followed by 2 hours of reperfusion. Cardioprotection was assessed by evaluating left ventricular function, ventricular arrhythmias, myocardial infarct size and cardiomyocyte apoptosis.\nSimilar types of post-ischemic recovery of HR, CF, and LVDP were registered (Table 1) in isolated hearts obtained from guinea pigs treated with 5 mg/kg/day of CoQ10 or CoQ9 for 4 weeks. The improvement in post-ischemic cardiac function (HR, CF, AF, and LVDP) was more pronounced in the CoQ9 treated group than in the CoQ10 treated group.\nProtective effect of CoQ9 and CoQ10 against from Ventricular Fibrillation (VF): Healthy Male Hartley guinea pigs of about 350-400 gm body weight were randomly divided into three groups, Control, CoQ9 and CoQ10. The guinea pigs were given orally 5 mg/kg body weight [in 0.5 ml water] of vehicle only, CoQ9 or CoQ10 respectively by gavage once a day. […] Treatment was continued for 30 days, the animals had free access to food and water. After 30 days, all animals were anesthetized, heparinized and sacrificed. The hearts excised, and isolated for perfusion via Langendorff mode for 5 min of washout period of the Langendorff heart perfusion, the pulmonary vein was cannulated, and the heart was switched to the “working” mode via perfusion of the left atria (at a filling pressure of 17 cm of the buffer, 1.7 kPa) as it was described in detail elsewhere. Global ischemia was imposed by clamping the atrial and aortic cannulas. Epicardial ECG was recorded through out the experiment, by attaching two silver electrodes directly to the myocardium and data collected using a data acquisition system (ADInstruments, Powerlab, Castle Hill, Australia). ECGs were analyzed to determine ventricular fibrillation (VF) and ventricular tachycardia (VT). The first 10 min of reperfusion was done in Langendorf (‘nonworking’) mode in order to avoid the development of reperfusion-induced VT and VF during the ‘working’ heart reperfusion. After the initial 2 min of VT or/and VF (sustained VF) in Langendorff reperfusion, hearts were defibrillated (if it was necessary), reperfused for an additional 8 min in Langendorff mode, and switched to ‘working heart’ reperfusion, and myocardial function was recorded. The heart was considered to be in VF if an irregular undulating baseline was apparent on the ECG. The data of VT, VF and sinus rhythm show their durations (in seconds) within the first 120 s of nonworking Langendorff reperfusion. The incidences of reperfusion-induced ventricular fibrillation (VF) for CoQ9 and CoQ10 are depicted in FIG. 1. […] Incidence of VF was reduced from 92% (control group) to 25% (*p<0.05) and 8% (*p<0.05) with 5 mg/kg/day of CoQ10 and CoQ9, respectively.\nCoQ9 and CoQ10 treatment improves post-ischemic cardiac function (HR, CF, AF, and LVDP): Animal preparation, drug pretreatment and isolated working heart preparation were done as described in example 1. The isolated hearts obtained from group II and Group III guinea pigs treated with 5 mg/kg/day of […], for 4 weeks were subjected to 30 min ischemia followed by 120 min of reperfusion. […]"}, "[2]": {"system": "isolated guinea pig hearts", "test": "Myocardial infarct size (TTC staining) in isolated ischemic/reperfused guinea pig hearts", "format": "in vivo", "details": "5 mg/kg/day oral for 4 weeks; 30 min global ischemia, 120 min reperfusion; ratio infarct zone to risk zone; control 38±4.1%", "experimental": "FIG. 2/A Effects of CoQ10 and CoQ9 on infarct size in isolated guinea pig hearts subjected to 30 min of ischemia followed by 120 min of reperfusion. The bars represent mean±SD of infarct size for control, CoQ10 and CoQ9 supplemented groups. *p<0.05 compared to the untreated age-matched ischemic/reperfused drug-free control (C) value. N=12 in each group.\nExperimental studies were designed to determine if CoQ9 could protect guinea pig hearts from ischemia reperfusion injury. Myocardial ischemia reperfusion injury model is the most widely accepted experimental method for assessment of parameters related to cardio-protection. […] Cardioprotection was assessed by evaluating left ventricular function, ventricular arrhythmias, myocardial infarct size and cardiomyocyte apoptosis.\nCoQ9 and CoQ10 treatment protects from cardiac infarction: Animal preparation, drug pretreatment and isolated working heart preparation were done as described in example 1. […] Using the NIH Image 1.61 image processing software, Infarct zones of each slice were traced and the respective areas were calculated in terms of pixels. The areas were measured by computerized planimetry software and these areas were multiplied by the weight of each slice, then the results summed up to obtain the weight of the risk zone. Infarct size was calculated as the ratio, in percent, of the infarct zone to the risk zone. […]"}},
  "note": "Values joined by “and” are separate entries in the source; they are usually repeats but may differ in a detail not shown here. Identical values can stand only once. Marks after values point to notes of the source that are not given here.",
  "data": [
    {"smiles": "COC1=C(OC)C(=O)C(C/C=C(\\C)CC/C=C(\\C)CC/C=C(\\C)CC/C=C(\\C)CC/C=C(\\C)CC/C=C(\\C)CC/C=C(\\C)CC/C=C(\\C)CCC=C(C)C)=C(C)C1=O", "note": "[CoQ9, Coenzyme Q9]", "values": [
      {"measurement": "aortic flow (AF), After 60 min of RE", "setting": "[1]", "value": "27 ± 1* ml/min"},
      {"measurement": "coronary flow (CF), After 60 min of RE", "setting": "[1]", "value": "22 ± 2* ml/min"},
      {"measurement": "heart rate (HR), After 60 min of RE", "setting": "[1]", "value": "240 ± 4* beats/min"},
      {"measurement": "left ventricular developed pressure (LVDP), After 60 min of RE", "setting": "[1]", "value": "80 ± 2* mm Hg"},
      {"measurement": "aortic flow (AF), After 120 min of RE", "setting": "[1]", "value": "26.0 ± 1.0", "unit": "mL/min"},
      {"measurement": "heart rate (HR), After 120 min of RE", "setting": "[1]", "value": "233±4", "unit": "beats/min"},
      {"measurement": "aortic flow (AF), After 120 min of RE", "setting": "[1]; listed as CoQ 9", "value": "26 ± 1", "unit": "mL/min"},
      {"measurement": "coronary flow (CF), After 120 min of RE", "setting": "[1]; listed as CoQ 9", "value": "25 ± 2", "unit": "mL/min"},
      {"measurement": "left ventricular developed pressure (LVDP), After 120 min of RE", "setting": "[1]; listed as CoQ 9", "value": "75±2", "unit": "mm Hg"},
      {"measurement": "aortic flow (AF), After 120 min of RE", "setting": "[1]; listed as Q9", "value": "26 ± 1* ml/min"},
      {"measurement": "coronary flow (CF), After 120 min of RE", "setting": "[1]; listed as Q9", "value": "25 ± 2* ml/min"},
      {"measurement": "heart rate (HR), After 120 min of RE", "setting": "[1]; listed as Q9", "value": "233 ± 4* beats/min"},
      {"measurement": "left ventricular developed pressure (LVDP), After 120 min of RE", "setting": "[1]; listed as Q9", "value": "75 ± 2* mm Hg"},
      {"measurement": "aortic flow (AF), Before ISA", "setting": "[1]", "value": "35 ± 2", "unit": "mL/min"},
      {"measurement": "coronary flow (CF), Before ISA", "setting": "[1]", "value": "23 ± 2", "unit": "mL/min"},
      {"measurement": "heart rate (HR), Before ISA", "setting": "[1]", "value": "248 ± 5", "unit": "beats/min"},
      {"measurement": "left ventricular developed pressure (LVDP), Before ISA", "setting": "[1]", "value": "106 ± 4", "unit": "mm Hg"},
      {"measurement": "coronary flow (CF), Before ISA", "setting": "[1]; listed as Q9", "value": "23 ± 2", "unit": "mL/min"},
      {"measurement": "infarct size", "setting": "[2]", "value": "16.3±3.2", "unit": "%"}
    ]},
    {"smiles": "COC1=C(OC)C(=O)C(C/C=C(\\C)CC/C=C(\\C)CC/C=C(\\C)CC/C=C(\\C)CC/C=C(\\C)CC/C=C(\\C)CC/C=C(\\C)CC/C=C(\\C)CC/C=C(\\C)CCC=C(C)C)=C(C)C1=O", "note": "[CoQ10, Coenzyme Q10, reference compound]", "values": [
      {"measurement": "aortic flow (AF), After 60 min of RE", "setting": "[1]", "value": "20 ± 2* ml/min"},
      {"measurement": "coronary flow (CF), After 60 min of RE", "setting": "[1]", "value": "20 ± 1* ml/min"},
      {"measurement": "heart rate (HR), After 60 min of RE", "setting": "[1]", "value": "228 ± 3* beats/min"},
      {"measurement": "left ventricular developed pressure (LVDP), After 60 min of RE", "setting": "[1]", "value": "71 ± 3* mm Hg"},
      {"measurement": "aortic flow (AF), After 120 min of RE", "setting": "[1]", "value": "18.0 ± 2.0 mL/min and 18 ± 2 mL/min"},
      {"measurement": "coronary flow (CF), After 120 min of RE", "setting": "[1]", "value": "19 ± 1", "unit": "mL/min"},
      {"measurement": "heart rate (HR), After 120 min of RE", "setting": "[1]", "value": "217±3", "unit": "beats/min"},
      {"measurement": "left ventricular developed pressure (LVDP), After 120 min of RE", "setting": "[1]", "value": "64±3", "unit": "mm Hg"},
      {"measurement": "aortic flow (AF), After 120 min of RE", "setting": "[1]; listed as Q10", "value": "18 ± 2* ml/min"},
      {"measurement": "coronary flow (CF), After 120 min of RE", "setting": "[1]; listed as Q10", "value": "19 ± 1* ml/min"},
      {"measurement": "heart rate (HR), After 120 min of RE", "setting": "[1]; listed as Q10", "value": "217 ± 3* beats/min"},
      {"measurement": "left ventricular developed pressure (LVDP), After 120 min of RE", "setting": "[1]; listed as Q10", "value": "64 ± 3* mm Hg"},
      {"measurement": "aortic flow (AF), Before ISA", "setting": "[1]", "value": "34 ± 2", "unit": "mL/min"},
      {"measurement": "heart rate (HR), Before ISA", "setting": "[1]", "value": "261 ± 6", "unit": "beats/min"},
      {"measurement": "left ventricular developed pressure (LVDP), Before ISA", "setting": "[1]", "value": "100 ± 5", "unit": "mm Hg"},
      {"measurement": "coronary flow (CF), Before ISA", "setting": "[1]; listed as CoQ 10", "value": "25 ± 2", "unit": "mL/min"},
      {"measurement": "coronary flow (CF), Before ISA", "setting": "[1]; listed as Q10", "value": "25 ± 2", "unit": "mL/min"},
      {"measurement": "infarct size", "setting": "[2]", "value": "21.1±5", "unit": "%"}
    ]}
  ]
}
